Source: ChEMBL document CHEMBL3243990, “Hydantoins as antitumor agents” (1977)
Calls of active or inactive are those of the source. The calls are words filed in the database; no cut-off is given here.

system: P388; test: Antitumor activity against mouse P388 cells allografted in mouse relative to control; type: functional

Row | Compound | Activity | T/C [%]
1 | O=C1N(Cl)C(=O)C(c2ccc(C(F)(F)F)cc2)(c2ccc(C(F)(F)F)cc2)N1Cl | inactive | 
2 | CN1C(=O)NC(c2ccc(Cl)cc2)(c2ccc(Cl)cc2)C1=O | inactive | 
3 | O=C1NC(=O)C(c2ccc(C(F)(F)F)cc2)(c2ccc(C(F)(F)F)cc2)N1 | inactive | 
4 | CC(=O)N1C(=O)N(Cl)C(=O)C1(c1ccc(Cl)cc1)c1ccc(Cl)cc1 | inactive | 
5 | O=C1N(Cl)C(=O)C(c2ccc(Cl)cc2)(c2ccc(Cl)cc2)N1Cl |  | 190
6 | O=C(CCl)N1C(=O)NC(c2ccc(Cl)cc2)(c2ccc(Cl)cc2)C1=O | inactive | 
7 | CC(=O)N1C(=O)NC(c2ccc(Cl)cc2)(c2ccc(Cl)cc2)C1=O | inactive | 
8 | CC(=O)N1C(=O)NC(=O)C1(c1ccc(Cl)cc1)c1ccc(Cl)cc1 | inactive | 

system: L1210; test: Antitumor activity against mouse L1210 cells allografted in mouse relative to control; type: functional, cell-based

Row | Compound | Activity
9 | O=C1N(Cl)C(=O)C(c2ccc(C(F)(F)F)cc2)(c2ccc(C(F)(F)F)cc2)N1Cl | inactive
10 | O=C1NC(=O)C2(CSSC2)N1 | inactive
11 | CC(=O)N1C(=O)NC(=O)C1(C)c1cccs1 (centres undefined) | inactive
12 | CN1C(=O)NC(C)(c2cccs2)C1=O (centres undefined) | inactive
13 | CC1(c2cccs2)NC(=O)NC1=O (centres undefined) | inactive
14 | CN1C(=O)NC(c2ccc(Cl)cc2)(c2ccc(Cl)cc2)C1=O | inactive
15 | O=C1NC(=O)C(c2ccc(C(F)(F)F)cc2)(c2ccc(C(F)(F)F)cc2)N1 | inactive
16 | CC1(c2cccs2)NC(=O)N(Cl)C1=O (centres undefined) | inactive
17 | CC1(c2ccco2)NC(=O)N(Cl)C1=O (centres undefined) | inactive
18 | CC1(c2cccs2)NC(=O)N(C(=O)CCl)C1=O (centres undefined) | inactive
19 | CC(=O)N1C(=O)NC(=O)C1(C)c1ccco1 (centres undefined) | inactive
20 | CC(=O)N1C(=O)NC(=O)C1(C)c1ccc(Cl)s1 (centres undefined) | inactive
21 | CC(=O)N1C(=O)N(Cl)C(=O)C1(c1ccc(Cl)cc1)c1ccc(Cl)cc1 | inactive
22 | CC1(c2ccco2)NC(=O)NC1=O (centres undefined) | inactive
23 | CC(=O)N1C(=O)N(Cl)C(=O)C1(C)c1cccs1 (centres undefined) | inactive
24 | CC1(c2ccc(Cl)s2)NC(=O)NC1=O (centres undefined) | inactive
25 | O=C1NC(=O)C(c2cccs2)(c2cccs2)N1 | inactive
26 | CC1(c2ccc(Cl)s2)C(=O)N(Cl)C(=O)N1Cl (centres undefined) | inactive
27 | CC1(c2ccco2)NC(=O)N(C(=O)CCl)C1=O (centres undefined) | inactive
28 | CC1(c2cccs2)C(=O)N(Cl)C(=O)N1Cl (centres undefined) | inactive
29 | O=C1N(Cl)C(=O)C(c2ccc(Cl)cc2)(c2ccc(Cl)cc2)N1Cl | inactive
30 | O=C(CCl)N1C(=O)NC(c2ccc(Cl)cc2)(c2ccc(Cl)cc2)C1=O | inactive
31 | O=C1NC(c2cccs2)(c2cccs2)C(=O)N1Cl | inactive
32 | CC(=O)N1C(=O)NC(c2ccc(Cl)cc2)(c2ccc(Cl)cc2)C1=O | inactive
33 | CC(=O)N1C(=O)NC(=O)C1(c1ccc(Cl)cc1)c1ccc(Cl)cc1 | inactive
34 | O=C1NC(=O)C(c2ccc(Cl)cc2)(c2ccc(Cl)cc2)N1 | inactive
